In one experiment the test system is F143W mutant of Bcl-xL. Briefly: ITC measurement of Bak BH3 peptide binding, F143W mutant. Also on record: species or system human. The note with it: ratio of KA by ITC, F143W vs WT Bcl-xL. For orientation: Isothermal titration calorimetry measures the heat released or taken up as one component is titrated into another.
The subject of another experiment is WT Bcl-xL. Nature of the experiment: NMR titration / chemical shift perturbation. It is filed as binding, human.

“NH3-GQVGRQLAIIGDDINR-COOH [Bak BH3 peptide]”: in the experiment with F143W mutant of Bcl-xL, the “affinity increase, F143W mutant versus WT Bcl-xL” value is recorded as “twofold”. As for NH3-YPLGSPLWRLHS-COOH [P1], in the experiment on WT Bcl-xL (NMR, 160 μM peptide added to 100 μM WT Bcl-xL, 10 mM NaPi pH 6.8, 2 mM DTT, 298 K), the “CSP in the cryptic site” value is listed as “clear CSP in the cryptic site”. In the experiment with WT Bcl-xL (concluded from NMR CSPs, 160 μM peptide, 100 μM WT Bcl-xL), the “binding to WT Bcl-xL (binding mode)” value is “binds to the WT Bcl-xL with the expected binding mode”.

The values are drawn from PMC7527212 (Science Advances, 2020).
